Experimental data: PubChem BioAssay (NCI)
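Grown in 96-well plates, cells were treated for 48 hours with each compound at five concentrations. Insufficient inhibition: endpoint recorded as highest concentration tested. At the GI50, growth is halved. TGI denotes the concentration required for complete inhibition of growth.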

Key:
Assay in all cases: DTP human tumour cell line panel, 48 h
KM12 colon = test system: KM12 colon
SK-MEL-5 melanoma = test system: SK-MEL-5 melanoma
SR leukemia = test system: SR leukemia
HS 578T breast = test system: HS 578T breast
SNB-75 CNS = test system: SNB-75 CNS
M14 melanoma = test system: M14 melanoma
SF-539 CNS = test system: SF-539 CNS
A549 NSCLC = test system: A549 NSCLC
NCI-H460 lung = test system: NCI-H460 lung
RXF 393 renal = test system: RXF 393 renal
U251 CNS = test system: U251 CNS
UACC-257 melanoma = test system: UACC-257 melanoma
COLO 205 colon = test system: COLO 205 colon
HT29 colon = test system: HT29 colon
ACHN renal = test system: ACHN renal
SN12C renal = test system: SN12C renal
SNB-19 CNS = test system: SNB-19 CNS
HCT-15 colon = test system: HCT-15 colon
LOX IMVI melanoma = test system: LOX IMVI melanoma
OVCAR-3 ovarian = test system: OVCAR-3 ovarian
SF-268 CNS = test system: SF-268 CNS
HL-60(TB) leukemia = test system: HL-60(TB) leukemia
NCI-H226 lung = test system: NCI-H226 lung
UACC-62 melanoma = test system: UACC-62 melanoma
SK-OV-3 ovarian = test system: SK-OV-3 ovarian
DU-145 prostate = test system: DU-145 prostate
A498 renal = test system: A498 renal
NCI-H23 lung = test system: NCI-H23 lung
MALME-3M melanoma = test system: MALME-3M melanoma
IGROV1 ovarian = test system: IGROV1 ovarian
UO-31 renal = test system: UO-31 renal
OVCAR-8 ovarian = test system: OVCAR-8 ovarian
OVCAR-5 ovarian = test system: OVCAR-5 ovarian
CAKI-1 renal = test system: CAKI-1 renal
MDA-MB-435 = test system: MDA-MB-435
HOP-92 NSCLC = test system: HOP-92 NSCLC
HCT-116 colon = test system: HCT-116 colon
HOP-62 NSCLC = test system: HOP-62 NSCLC
SK-MEL-28 melanoma = test system: SK-MEL-28 melanoma
PC-3 prostate = test system: PC-3 prostate
MDA-MB-231 breast = test system: MDA-MB-231 breast
MOLT-4 leukemia = test system: MOLT-4 leukemia
SF-295 CNS = test system: SF-295 CNS
EKVX NSCLC = test system: EKVX NSCLC
786-0 renal = test system: 786-0 renal
MCF7 breast = test system: MCF7 breast
SK-MEL-2 melanoma = test system: SK-MEL-2 melanoma
SW-620 colon = test system: SW-620 colon
T-47D breast = test system: T-47D breast
TK-10 renal = test system: TK-10 renal
OVCAR-4 ovarian = test system: OVCAR-4 ovarian
HCC-2998 colon = test system: HCC-2998 colon
NCI-H522 lung = test system: NCI-H522 lung
BT-549 breast = test system: BT-549 breast
NCI/ADR-RES ovarian = test system: NCI/ADR-RES ovarian

For `Cc1ccc(/C=C/C(=O)c2ccc(F)cc2)s1`, the GI50 (KM12 colon) was 2.75 µM, the TGI (KM12 colon) was 7.52 µM and the GI50 (SK-MEL-5 melanoma) was 12.2 µM. For the same molecule, the TGI (SK-MEL-5 melanoma) was 24.9 µM, the GI50 (SR leukemia) was 2.86 µM and the TGI (SR leukemia) was 20 µM. For the same molecule, the GI50 (HS 578T breast) was 3.35 µM, the TGI (HS 578T breast) was 9.7 µM and the GI50 (SNB-75 CNS) was 13.4 µM. For the same molecule, the TGI (SNB-75 CNS) was 26.5 µM, the GI50 (M14 melanoma) was 7.89 µM and the TGI (M14 melanoma) was 26.7 µM. It also gave a GI50 (SF-539 CNS) of 3.56 µM, a TGI (SF-539 CNS) of 10.2 µM and a GI50 (A549 NSCLC) of 4.22 µM. It also gave a TGI (A549 NSCLC) of 17.6 µM, a GI50 (NCI-H460 lung) of 3.24 µM and a TGI (NCI-H460 lung) of 10.6 µM. It also gave a GI50 (RXF 393 renal) of 1.82 µM, a TGI (RXF 393 renal) of 4.04 µM and a GI50 (U251 CNS) of 2.85 µM. The TGI (U251 CNS) was 11.2 µM, the GI50 (UACC-257 melanoma) was 3.33 µM and the TGI (UACC-257 melanoma) was 14.1 µM. It also gave a GI50 (COLO 205 colon) of 6.07 µM, a TGI (COLO 205 colon) of 19.9 µM and a GI50 (HT29 colon) of 2.09 µM. The TGI (HT29 colon) was 4.11 µM, the GI50 (ACHN renal) was 2.26 µM and the TGI (ACHN renal) was 4.52 µM. The GI50 (SN12C renal) was 6.47 µM, the TGI (SN12C renal) was 19.8 µM and the GI50 (SNB-19 CNS) was 11.3 µM. It also gave a TGI (SNB-19 CNS) of 24.4 µM, a GI50 (HCT-15 colon) of 4.14 µM and a TGI (HCT-15 colon) of 18.4 µM. The GI50 (LOX IMVI melanoma) was 1.87 µM, the TGI (LOX IMVI melanoma) was 3.59 µM and the GI50 (OVCAR-3 ovarian) was 1.8 µM. The TGI (OVCAR-3 ovarian) was 3.29 µM, the GI50 (SF-268 CNS) was 2.19 µM and the TGI (SF-268 CNS) was 4.91 µM. It also gave a GI50 (HL-60(TB) leukemia) of 2.26 µM, a TGI (HL-60(TB) leukemia) of 7.22 µM and a GI50 (NCI-H226 lung) of 10.4 µM. For the same molecule, the TGI (NCI-H226 lung) was 24 µM, the GI50 (UACC-62 melanoma) was 6.86 µM and the TGI (UACC-62 melanoma) was 21.3 µM. For the same molecule, the GI50 (SK-OV-3 ovarian) was 15.4 µM, the TGI (SK-OV-3 ovarian) was 37.9 µM and the GI50 (DU-145 prostate) was 3.41 µM. The TGI (DU-145 prostate) was 11.2 µM, the GI50 (A498 renal) was 2.69 µM and the TGI (A498 renal) was 11.1 µM. The GI50 (NCI-H23 lung) was 3.67 µM, the TGI (NCI-H23 lung) was 16.5 µM and the GI50 (MALME-3M melanoma) was 1.74 µM. The TGI (MALME-3M melanoma) was 3.74 µM, the GI50 (IGROV1 ovarian) was 2.17 µM and the TGI (IGROV1 ovarian) was 5.25 µM. It also gave a GI50 (UO-31 renal) of 1.69 µM, a TGI (UO-31 renal) of 4.04 µM and a GI50 (OVCAR-8 ovarian) of 2.74 µM. The TGI (OVCAR-8 ovarian) was 8.72 µM, the GI50 (OVCAR-5 ovarian) was 5.39 µM and the TGI (OVCAR-5 ovarian) was 18.6 µM. For the same molecule, the GI50 (CAKI-1 renal) was 1.78 µM, the TGI (CAKI-1 renal) was 3.72 µM and the GI50 (MDA-MB-435) was 1.77 µM. It also gave a TGI (MDA-MB-435) of 3.7 µM, a GI50 (HOP-92 NSCLC) of 1.6 µM and a TGI (HOP-92 NSCLC) of 3.4 µM. It also gave a GI50 (HCT-116 colon) of 1.86 µM, a TGI (HCT-116 colon) of 3.37 µM and a GI50 (HOP-62 NSCLC) of 14.2 µM. For the same molecule, the TGI (HOP-62 NSCLC) was 28 µM, the GI50 (SK-MEL-28 melanoma) was 2.94 µM and the TGI (SK-MEL-28 melanoma) was 7.31 µM. The GI50 (PC-3 prostate) was 2.64 µM, the TGI (PC-3 prostate) was 7.11 µM and the GI50 (MDA-MB-231 breast) was 10.2 µM. For the same molecule, the TGI (MDA-MB-231 breast) was 24 µM, the GI50 (MOLT-4 leukemia) was 3.39 µM and the TGI (MOLT-4 leukemia) was greater than 100 µM. For the same molecule, the GI50 (SF-295 CNS) was 5.38 µM, the TGI (SF-295 CNS) was 18.8 µM and the GI50 (EKVX NSCLC) was 5.83 µM. It also gave a TGI (EKVX NSCLC) of 20.3 µM, a GI50 (786-0 renal) of 3.41 µM and a TGI (786-0 renal) of 14.1 µM. The GI50 (MCF7 breast) was 3.66 µM, the TGI (MCF7 breast) was 16.9 µM and the GI50 (SK-MEL-2 melanoma) was 4.35 µM. For the same molecule, the TGI (SK-MEL-2 melanoma) was 15.6 µM, the GI50 (SW-620 colon) was 1.96 µM and the TGI (SW-620 colon) was 3.99 µM. The GI50 (T-47D breast) was 4.71 µM, the TGI (T-47D breast) was 23.5 µM and the GI50 (TK-10 renal) was 1.84 µM. It also gave a TGI (TK-10 renal) of 4.33 µM, a GI50 (OVCAR-4 ovarian) of 11.7 µM and a TGI (OVCAR-4 ovarian) of 29.8 µM. The GI50 (HCC-2998 colon) was 2.2 µM, the TGI (HCC-2998 colon) was 5.14 µM and the GI50 (NCI-H522 lung) was 1.71 µM. The TGI (NCI-H522 lung) was 3.57 µM, the GI50 (BT-549 breast) was 3.02 µM and the TGI (BT-549 breast) was 8.49 µM. The GI50 (NCI/ADR-RES ovarian) was 3.68 µM and the TGI (NCI/ADR-RES ovarian) was 17.6 µM.
